Source: patent US10364249B2, “Azatriangulenium salts as PET-quenched fluorescent probes” (KØBENHAVNS UNIVERSITET, priority 2013, dated 2019)
Read-outs that look alike come from different tables or passages of the source.

Columns and labels:
Format in all cases: physicochemical
[1] = Photophysical properties and pKa of DAOTA dyes, fluorescence intensity at different pH, 6% DMSO in PBS buffer; settings: for pKa: 6% DMSO in PBS buffer solution, normalized fluorescence intensity at 588 nm at different pH, sigmoidal fits (FIG. 8)
From the text: FIG. 6. Absorption spectra of MR-68_DAOTA measured in 6% DMSO in PBS buffer solution. Circles (o) represent the absorption spectrum of the protonated form (measured at acidic conditions) and crosses (x) represent the absorption spectrum of the deprotonated form (measured at basic conditions).
FIG. 7. Emission spectra of MR-68_DAOTA measured in 6% DMSO in PBS buffer solution. Circles (o) represent the absorption spectrum of the protonated form (measured at acidic conditions) and crosses (x) represent the absorption spectrum of the deprotonated form (measured at basic conditions).
FIG. 8. […] The solid lines are sigmoidal fits to the experimental data.
(§1) Emission spectroscopy was performed in front-face set-up for sensor spot samples and in a conventional L-shape set-up for measuremetns in solution. A Perkin-Elmer LS50B and a Horiba Fluorolog 3 were used interchangeably. Intensity based sensor measurements were only performed on the LS50B platform. Fluorescence lifetime based sensor measurements were only performed on the Fluorolog 3. Absorption spectroscopy was performed on a Perkin Elmer Lambda1050, with integrating sphere (for sensor spots) and with a 3-detector module for solution samples.

[2] = Ratiometric emission of pH sensor spot with dyes bound into SOL-GEL-matrix at different pH; settings: for pKa from ratiometric emission signal: with R1C
Protocol: FIG. 9. Emission spectra of a pH sensor spot loaded with I1C (signal at ca. 590 nm) and R1C (signal at ca. 650 nm) covalently bound into the SOL-GEL-matrix recorded at different pH values (solid line: pH 2.48, circles: pH 6.26, crosses: 9.89).
as §1
The compounds according to 6 or 7 are mixed into either the ETEOS or the GPTMS gel component 1 h after mixing of the materials described. Subsequently, the ETEOS or the GPTMS gel components are mixed. The two components are then mixed in 1:1 molar ratio and left at a stirring table for no less than 3 days. The dyes 6 or 7 are added in an amount so that a final concentration of 0.1 mM of dye is obtained in the final GPTMS-ETEOS mixture. The resulting GPTMS-ETEOS-dye mixture is then deposited and cured at 110° C. for 3-4 hours.

[3] = Absorption and emission spectra, photophysical properties of pH-responsive triangulenium dyes in solution; set-up: λmax (wavelength of maximum absorption) / λem (wavelength of maximum emission): unit not given here; settings: for pKa / λem (wavelength of maximum emission) / λmax (wavelength of maximum absorption): in solution; for ϕfl- (φfl-off, fluorescence quantum yield, off-state): off-state (quenched); for ϕfl- (φfl-on, fluorescence quantum yield, on-state): on-state (not quenched)
Protocol: Absorption and emission spectrum of the prepared triangulenium compounds of Formula (I) were measured and their photophysical properties are compiled in table 2.
pKa is −log10 of the acid dissociation constant, Ka, and is a quantitative measure of the strength of an acid in solution. λmax denotes the wavelength wherein maximum absorption is obtained. λem denotes the wavelength wherein maximum emission is obtained. φfl-on and φfl-off are the fluorescence quantum yields, wherein the responsive fluorescent compounds are in their on-state (not quenched) and off-state (quenched), respectively. Ion/Ioff is the ratio between φfl-on and φfl-off.
All disclosed absorption and emission spectrum measurement shown herein are measured as follows:
as §1

[4] = Readout and chemical stability of optical sensor of DMQA+ and 4g in ORMOSIL matrix
Protocol: In order to validate the sensor performance, different stability tests were performed. One critical parameter for an optical sensor is known to be the read-out stability. Another critical parameter for optical sensors is the chemical stability.

[5] = Comparison of solution and sol-gel spectra and titration curves of 4g; settings: upon attaching to the matrix material
From the text: The arrow indicates the change from pH˜11 to pH˜1.

[6] = first value of cell, protonated form
[7] = second value of cell, deprotonated form
[8] = covalently bound into the SOL-GEL-matrix

Compound	η, quenching efficiency of the fluorescence intensity [1]	pKa [1]	εmax, molar absorption coefficient [1, 6]	λ max, wavelength at the maximum fluorescence intensity [1, 6]	λabs max, wavelength at maximum absorption of the lowest energy transition [1, 6]	εmax, molar absorption coefficient [1, 7]	λ max, wavelength at the maximum fluorescence intensity [1, 7]	λabs max, wavelength at maximum absorption of the lowest energy transition [1, 7]	Ion/Io (Ion/Ioff, ratio between φfl-on and φfl-off) [3]	pKa [3]	λem (wavelength of maximum emission) [3]	λmax (wavelength of maximum absorption) [3]	ϕfl- (φfl-off, fluorescence quantum yield, off-state) [3]	ϕfl- (φfl-on, fluorescence quantum yield, on-state) [3]	other results
CN1c2cccc3c2C2c4c(cccc4N(c4cccc(O)c4)c4cccc1c42)O3 (stereo not drawn)	99%	8.5	13600 M⁻¹ cm⁻¹	590/590 nm	554 nm	13500 M⁻¹ cm⁻¹	590/590 nm	559 nm							
8-(1-methyl-1-propyl-3-(3-(triethoxysilyl)propyl)urea)-4,8-diazatriangulenium-4-(4-(methylsulfonyl)phenolate) [Compound I2C]															pKa from ratiometric emission signal [2, 8]: 5.4
8-(1-methyl-1-propyl-3-(3-(triethoxysilyl)propyl)urea)-4,8-diazatriangulenium-4-(4-(trifluoromethyl)phenolate) [Compound I1C]															emission signal ([2]; pH sensor spot, covalently bound into the SOL-GEL-matrix): ca. 590 nm; pKa from ratiometric emission signal [2, 8]: 6.3
CCO[Si](CCCNC(=O)N(C)CCCn1c2cccc(OC)c2[c+]2c3c(OC)cccc3n(CCCN(C)C(=O)NCCC[Si](OCC)(OCC)OCC)c3cccc1c32)(OCC)OCC [Compound R1C, 5,9-bis(4,4-diethoxy-10-methyl-9-oxo-3-oxa-8,10-diaza-4-silatridecan-13-yl)-1,13-dimethoxy-5,9-dihydro-13bH-quinolino[2,3,4-kl]acridin-13b-ylium hexafluorophosphate]															emission signal [2]: ca. 650 nm
CN1c2cccc3c2C2c4c(cccc4N(c4cc(C(F)(F)F)ccc4O)c4cccc1c42)O3 (stereo not drawn) [MR-66_DAOTA]	>99%	6.2	16600/16600 M^−1cm^−1	585 nm	553 nm	16600/16600 M^−1cm^−1	588 nm	558 nm							
CN1c2cccc3c2C2c4c(cccc4N(c4cc(O)cc(C(F)(F)F)c4)c4cccc1c42)O3 (stereo not drawn) [MR-67.1_DAOTA]	99%	7.3	14700 M⁻¹ cm⁻¹	586 nm	553 nm	14300 M⁻¹ cm⁻¹	588 nm	557 nm							
CN1c2cccc3c2C2c4c(cccc4N(c4ccc(O)cc4)c4cccc1c42)O3 (stereo not drawn) [MR-93_DAOTA]	>99%	8.6	14400 M⁻¹ cm⁻¹	591/591 nm	555 nm	14100 M⁻¹ cm⁻¹	591/591 nm	560 nm							

Now from value to compound, other results behind:

η, quenching efficiency of the fluorescence intensity [1]	pKa [1]	εmax, molar absorption coefficient [1, 6]	λ max, wavelength at the maximum fluorescence intensity [1, 6]	λabs max, wavelength at maximum absorption of the lowest energy transition [1, 6]	εmax, molar absorption coefficient [1, 7]	λ max, wavelength at the maximum fluorescence intensity [1, 7]	λabs max, wavelength at maximum absorption of the lowest energy transition [1, 7]	Ion/Io (Ion/Ioff, ratio between φfl-on and φfl-off) [3]	pKa [3]	λem (wavelength of maximum emission) [3]	λmax (wavelength of maximum absorption) [3]	ϕfl- (φfl-off, fluorescence quantum yield, off-state) [3]	ϕfl- (φfl-on, fluorescence quantum yield, on-state) [3]	Compound	other results
								~50	6.9	558	541	>0.5%	8%	Oc1ccccc1N1c2cccc3c2C2c4c(cccc4Oc4cccc1c42)O3 [Compound 3b, N-(2-hydroxyphenyl)-azadioxatriangulenium tetrafluoroborat]	
								~50	7.3	558	540	>0.5%	8%	Oc1cccc(N2c3cccc4c3C3c5c(cccc5Oc5cccc2c53)O4)c1 [Compound 3c, N-(3-hydroxyphenyl)-azadioxatriangulenium tetrafluoroborat]	
								~50	8.3	563	540	>0.5%	2%	Oc1ccc(N2c3cccc4c3C3c5c(cccc5Oc5cccc2c53)O4)cc1 [Compound 3d]	
										590	557			CCCCCCCCCCCCN1c2cccc3c2C2c4c(cccc4N(c4cc(F)ccc4O)c4cccc1c42)O3 (stereo not drawn) [Compound 4f, 4-dodecyl-8-(5-fluoro-2-hydroxyphenyl)-4,8-diaza-12-oxa-4,8,12,12c-tetrahydro-dibenzo[cd,mn]-pyrenylium]	
								~100	3.4	590	557	6%	26%	CCCCCCCCCCCCN1c2cccc3c2C2c4c(cccc4N(c4cc(S(C)(=O)=O)ccc4O)c4cccc1c42)O3 (stereo not drawn) [Compound 4g, 4-dodecyl-8-(2-hydroxy-5-(methylsulfonyl)phenyl)-4,8-diaza-12-oxa-4,8,12,12c-tetrahydro-dibenzo[cd,mn]-pyrenylium]	responsiveness of ratiometric readout signal ([4]; constant illumination, low and high pH): maintains its responsiveness; ratiometric readout signal stable for ([4]; high and low pH): at least 16 hours; spectral change and pH response, solution versus sol-gel [5]: spectral change is minimal while the response to changing pH is maintained
								~50	6.5	590	557			CCCCCCCCCCCCn1c2cccc3oc4cccc5c4[c+](c32)c2c1cccc2n5-c1cc(C(F)(F)F)ccc1O [Compound 4h, N-(2-hydroxy-5-(trifluoromethyI)phenyl)-N-dodecyl-diazaoxatriangulenium hexafluorophosphat]	
